ChEMBL document CHEMBL4433197, “Nuclear Factor Erythroid 2-Related Factor 2 (Nrf2) Inhibition: An Emerging Strategy in Cancer Therapy” (J Med Chem, 2019)

Molecular target: T1, Nuclear factor erythroid 2-related factor 2 (Mus musculus, UniProt Q60795)
T1 sequence (Q60795 whole entry): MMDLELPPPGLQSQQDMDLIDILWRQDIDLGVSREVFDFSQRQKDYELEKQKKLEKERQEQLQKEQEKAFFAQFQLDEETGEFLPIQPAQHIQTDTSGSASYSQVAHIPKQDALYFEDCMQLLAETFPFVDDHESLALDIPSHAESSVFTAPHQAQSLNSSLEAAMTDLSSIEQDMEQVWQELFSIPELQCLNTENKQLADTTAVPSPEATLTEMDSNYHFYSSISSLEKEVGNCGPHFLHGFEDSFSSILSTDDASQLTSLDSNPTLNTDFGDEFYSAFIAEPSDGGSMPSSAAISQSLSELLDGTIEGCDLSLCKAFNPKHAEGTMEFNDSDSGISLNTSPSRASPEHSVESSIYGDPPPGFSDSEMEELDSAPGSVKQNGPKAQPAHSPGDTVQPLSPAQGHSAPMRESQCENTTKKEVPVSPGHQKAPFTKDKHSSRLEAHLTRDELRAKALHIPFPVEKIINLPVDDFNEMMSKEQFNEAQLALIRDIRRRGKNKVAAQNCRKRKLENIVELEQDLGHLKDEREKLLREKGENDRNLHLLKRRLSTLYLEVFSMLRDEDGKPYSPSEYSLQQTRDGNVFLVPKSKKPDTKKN
Test: Inhibition of Nrf2 in mouse MYC-3T3-ARELUC cells harboring a stably integrated ARE by firefly luciferase reporter gene assay
Assay type: cell-based

EC50: 650 nM
SMILES: Fc1ccc(-c2csc3ncnc(NCc4ccc5c(c4)OCO5)c23)cc1
